Consider six compounds from patent EP2919004A1, “Bioassays on modified TLC/HPTLC plates” (Merck Patent GmbH, priority 2014, dated 2015).

The experiment has as its system hER. The experiment is described as follows: HPTLC-pYES (planar yeast estrogen screen) on RP-18 W plate, lac-Z reporter / MUG fluorescence. It counts as cell-based, human. Conditions: for estrogenic/bioactive effect in pYES: standard solutions or sample zone detected with the pYES, qualitative; for E2Eq: E2 equivalent calculated as EC50E2/EC50sample, recombinant Saccharomyces cerevisiae BJ3505, dose-response curves after separation on RP 18W plate, n=4.

Description: HPTLC. Standard and sample solutions (0.1-10 µL) were applied on the HPTLC plate RP-18 W (Merck Millipore, Darmstadt, Germany) as 6.5 mm bands by the Automatic TLC Sampler 4 (ATS4; CAMAG, Muttenz, Switzerland). […] The standard mixture was applied by overspaying of the individual standard solutions, which allowed flexibility for individual mixtures and volumes. For determination of the recovery rate, 0.1 µL P1 sample was sprayed on the plate and oversprayed with 0.1 µL - 2 µL CAPE standard solution. After sample application, the start zones were dried for 1 min using a hair dryer. Development was performed in a Twin Trough Chamber (20 x 10 cm, CAMAG), using n-hexane - toluene - ethyl acetate 4:1.5:1, v/v/v (all from ROTH) up to a migration distance of 70 mm. After development, the plate was dried with cold air using a hair dryer for 2 min to remove the residual solvent. The developed plate was documented at 366 nm illumination using the TLC Visualizer (CAMAG).
Cell cultivation. Saccharomyces cerevisiae BJ3505 (protease-deficient, MATα, PEP4: HIS3, Prb1Δ1.6R, HIS3Δ200, lys2-208, trp1Δ101, ura3-52) generated by McDonnell et al. (61, 62) was used for the pYES-assay. All experimental studies were based on stock of the recombinant estrogen sensitive yeast cells stored in 30% glycerol supplemented growth media, consisting of D-glucose 1 g/L, yeast nitrogen base 6.8 g/L, both Sigma Aldrich, Steinheim, Germany, and amino acid components according to Routledge and Sumpter (50), at -80 °C. From the stock, cells were streaked on an agar plate with growth medium (30°C, two days) to supply colonies for further suspension cultivation. Shaking suspension cultures were inoculated in 20 mL growth medium and cultured at 30 °C at 100 rpm for 18 h. Prior to the assay, cell concentration and viability determination was performed using a hemocytometer and trypan blue (0.4% Sigma Aldrich) staining. For the pYES, the cell number was adjusted to 2.5 x 10^8 cells in 50 mL with 150 µM CuSO4 supplemented growth medium. To remain constant cell quality within the exponential growth phase for further studies, cells were split daily by 1:10 dilution.
HPTLC-pYES. As the HPTLC was developed and cells were prepared, the pYES assay was started. The plate was automatically immersed into the cell suspension using the TLC Immersion Device (CAMAG) with a speed of 3.5 cm/s and an immersion time of 5 s. Thus, the cell suspension was homogeneously transferred onto the plate surface. The wettened plate was incubated in a horizontal position in a plastic box under almost 100% humidified air at 30 °C for 3 h. Thereafter, the plate was dried with cold air using a hair dryer for 2 min. For determination of the resulting ß-galactosidase, the plate was treated with the substrate 4-methylumbelliferyl-ß-D-galactopyranoside (MUG, Roth). ß-galactosidase acts on the substrate MUG to produce 4-methylumbelliferone (MU), detected as blue fluorescence at pH>7. MUG was dissolved in DMSO (20 mg/mL, Roth) and added to the reaction buffer (citric acid 6 g/L, disodium hydrogen phosphate 10 g/L, pH 12, Merck) to a final concentration of 0.5 mg/mL. The dried plate was immersed in the substrate solution according to the previous speed and immersion time. A second incubation period of 60 min at 37°C followed. The substrate reaction was terminated by immersion of the plate into a solution of glycine - NaOH (0.1 M, Roth), pH°12. […] Fluorescence measurement at 366/>400 nm was performed with the mercury lamp using the TLC Scanner 3 (CAMAG). Images were taken at 366 nm illumination using the Reprostar 3 documentation system (CAMAG).
The half maximal effective concentration (EC50) was calculated for comparison of the receptor affinities.

As for `O=c1cc(-c2ccc(O)c(O)c2)oc2cc(O)cc(O)c12` [luteolin], the “estrogenic/bioactive effect in pYES” value is on record as “showed an estrogenic/bioactive effect”.
Same read-out and setting: the result for `O=C(/C=C/c1ccc(O)c(O)c1)OCCc1ccccc1` [CAPE, Caffeic acid phenethyl ester] reads “bioactive EDC zone”; that for `O=c1c(O)c(-c2ccc(O)c(O)c2)oc2cc(O)cc(O)c12` [quercetin], “showed an estrogenic/bioactive effect”.
Consider `CCCCCCCCCc1ccc(O)cc1` [NP, 4-n-Nonylphenol], for which the E2Eq was 2.3x10^-4.
`C#C[C@]1(O)CC[C@H]2[C@@H]3CCc4cc(O)ccc4[C@H]3CC[C@@]21C` [EE2, 17α-ethinylestradiol]: the E2Eq is given as 0.3.
Turning to `CC(C)(c1ccc(O)cc1)c1ccc(O)cc1` [BPA, bisphenol A], the E2Eq is reported as 3.3x10^-4.
